Reference: patent US9579319B2 (Redx Pharma PLC, priority 2013, dated 2017)
pIC50: −log10 of the molar value.

System: Hedgehog signalling pathway
Test: Gli-reporter NIH3T3 luciferase assay (Hedgehog pathway inhibition)
Format: cell-based
Conditions: NIH3T3; Gli-reporter NIH-3T3 cells, recombinant mouse sonic hedgehog, 24 hours, luminescence; read-out: Category (Hedgehog pathway inhibition activity, IC50)
Summary of the method: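 Mouse NIH3T3 cells with Gli-responsive luciferase reporter, pre-treated 1 h with compound (top final concentration 1 μM, 0.1% DMSO) in 0.5% calf serum medium. Then stimulated with recombinant mouse sonic hedgehog for 24 h at 37° C. Luminescence read-out (OneGLO), triplicates; IC50 reported.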

Q: With COc1ccc(CN(C)C2CCN(c3nnc(-c4ccnn4C)c4ccccc34)CC2)cc1 [Example 63, (4-methoxyphenyl)methyl-methyl-[1-[4-(2-methylpyrazol-3-yl)phthalazin-1-yl]-4-piperidyl]ammonium] as the molecule, how does the pIC50 read?
A: The pIC50 was 5.70 to 6.70.

Q: With CN(Cc1ccc(F)cc1C(F)(F)F)C1CCCN(c2nnc(-c3ccnn3C)c3ccccc23)C1 (stereo not shown) [Example 54, N-[[4-fluoro-2-(trifluoromethyl)phenyl]methyl]-N-methyl-1-[4-(2-methylpyrazol-3-yl)phthalazin-1-yl]piperidin-3-amine] as the molecule, how does the pIC50 read?
A: The pIC50 was 5.70 to 6.70.

Q: With CN(Cc1ccc(F)cc1C(F)(F)F)C1CCN(c2nnc(-c3ccnn3C)c3ccccc23)CC1 [Example 78, N-[[4-fluoro-2-(trifluoromethyl)phenyl]methyl]-N-methyl-1-[4-(2-methylpyrazol-3-yl)phthalazin-1-yl]piperidin-4-amine] as the molecule, how does the pIC50 read?
A: The pIC50 was > 8.00.

Q: With Cn1nccc1-c1nnc(N2CCC(NC(=O)NC3CCCCC3)CC2)c2ccccc12 [Example 11, 1-cyclohexyl-3-[1-[4-(2-methylpyrazol-3-yl)phthalazin-1-yl]-4-piperidyl]urea] as the molecule, how does the pIC50 read?
A: Its pIC50 is > 8.00.

Q: With Cn1nccc1-c1nnc(N2CCC(NC(=O)OC(C)(C)C)CC2)c2ccccc12 [Example 66, tert-butyl N-[1-[4-(2-methylpyrazol-3-yl)phthalazin-1-yl]-4-piperidyl]carbamate] as the molecule, how does the pIC50 read?
A: Its pIC50 is 6.70 to 8.00.

Q: With Cn1nccc1-c1nnc(N2CCC(NCc3ccc(F)cc3F)CC2)c2ccccc12 [Example 74, N-[(2,4-difluorophenyl)methyl]-1-[4-(2-methylpyrazol-3-yl)phthalazin-1-yl]piperidin-4-amine] as the molecule, how does the pIC50 read?
A: The pIC50 was 5.70 to 6.70.

Q: With Cn1nccc1-c1nnc(N2CCC(NCc3ccccc3C(F)(F)F)CC2)c2ccccc12 [Example 40, 1-[4-(2-methylpyrazol-3-yl)phthalazin-1-yl]-N-[[2-(trifluoromethyl)phenyl]methyl]piperidin-4-amine] as the molecule, how does the pIC50 read?
A: The pIC50 was > 8.00.

Q: With CC(C)c1ccccc1CNC1CCN(c2nnc(-c3ccnn3C)c3ccccc23)CC1 [Example 43, N-[(2-isopropylphenyl)methyl]-1-[4-(2-methylpyrazol-3-yl)phthalazin-1-yl]piperidin-4-amine] as the molecule, how does the pIC50 read?
A: The pIC50 was 6.70 to 8.00.

Q: CN(Cc1ccc(F)nc1F)C1CCN(c2nnc(-c3ccnn3C)c3ccccc23)CC1 [Example 27, N-[(2,6-difluoro-3-pyridyl)methyl]-N-methyl-1-[4-(2-methylpyrazol-3-yl)phthalazin-1-yl]piperidin-4-amine] was tested. Which pIC50 did it give?
A: The pIC50 was 6.70 to 8.00.

Q: With Cc1ccccc1CN(C)C1CCN(c2nnc(-c3ccnn3C)c3ccccc23)CC1 [Example 30, N-methyl-1-[4-(2-methylpyrazol-3-yl)phthalazin-1-yl]-N-(o-tolylmethyl)piperidin-4-amine] as the molecule, how does the pIC50 read?
A: Its pIC50 is > 8.00.

Q: CN(Cc1ccc(C#N)cc1)C1CCN(c2nnc(-c3ccnn3C)c3ccccc23)CC1 [Example 60, 4-[[methyl-[1-[4-(2-methylpyrazol-3-yl)phthalazin-1-yl]-4-piperidyl]amino]methyl]benzonitrile] was tested. Which pIC50 did it give?
A: The pIC50 was 6.70 to 8.00.

Q: CN(Cc1ccccc1OC(F)F)C1CCN(c2nnc(-c3ccnn3C)c3ccccc23)CC1 [Example 12, N-[[2-(difluoromethoxy)phenyl]methyl]-N-methyl-1-[4-(2-methylpyrazol-3-yl)phthalazin-1-yl]piperidin-4-amine] was tested. Which pIC50 did it give?
A: The pIC50 was 6.70 to 8.00.

Q: CN(Cc1ccccc1C#N)C1CCN(c2nnc(-c3ccnn3C)c3ccccc23)CC1 [Example 33, 2-[[methyl-[1-[4-(2-methylpyrazol-3-yl)phthalazin-1-yl]-4-piperidyl]amino]methyl]benzonitrile] was tested. Which pIC50 did it give?
A: The pIC50 was 6.70 to 8.00.

Q: How did the pIC50 turn out when COc1ccccc1CNC1CCN(c2nnc(-c3ccnn3C)c3ccccc23)CC1 [Example 69, N-[(2-methoxyphenyl)methyl]-1-[4-(2-methylpyrazol-3-yl)phthalazin-1-yl]piperidin-4-amine] was run?
A: Its pIC50 is 5.70 to 6.70.

Q: COc1nnc(N2CCC(NCc3ccc(F)cc3C(F)(F)F)CC2)c2ccccc12 [Example 58, N-[[4-fluoro-2-(trifluoromethyl)phenyl]methyl]-1-(4-methoxyphthalazin-1-yl)piperidin-4-amine] was tested. Which pIC50 did it give?
A: Its pIC50 is 5.70 to 6.70.

Q: How did the pIC50 turn out when CC(=O)N(Cc1ccc(F)cc1C(F)(F)F)C1CCN(c2nnc(-c3ccnn3C)c3ccccc23)CC1 [Example 77, N-[[4-fluoro-2-(trifluoromethyl)phenyl]methyl]-N-[1-[4-(2-methylpyrazol-3-yl)phthalazin-1-yl]-4-piperidyl]acetamide] was run?
A: The pIC50 was 6.70 to 8.00.

Same assay, conditions: NIH3T3; Gli-reporter NIH-3T3 cells, recombinant mouse sonic hedgehog, 24 hours, luminescence; read-out: Gli luc IC50

Q: With Cn1nccc1-c1nnc(N2CCC(NC(=O)Nc3ccc(F)cc3F)CC2)c2c1CCC2 [Example 138, 1-(2,4-difluorophenyl)-3-[1-[1-(2-methylpyrazol-3-yl)-6,7-dihydro-5H-cyclopenta[d]pyridazin-4-yl]-4-piperidyl]urea] as the molecule, how does the pIC50 read?
A: The pIC50 was 6.70 to 8.00.

Q: How did the pIC50 turn out when CN(C1CCN(c2nnc(-c3ccnn3C)c3cccnc23)CC1)S(=O)(=O)c1ccc(F)cc1C(F)(F)F [Example 134, 4-fluoro-N-methyl-N-[1-[5-(2-methylpyrazol-3-yl)pyrido[2,3-d]pyridazin-8-yl]-4-piperidyl]-2-(trifluoromethyl)benzenesulfonamide] was run?
A: Its pIC50 is 6.70 to 8.00.

Q: How did the pIC50 turn out when CN(Cc1ccc(F)nc1C(F)(F)F)C1CCN(c2nnc(-c3ccnn3C)c3ccccc23)CC1 [Example 160, N-[[6-fluoro-2-(trifluoromethyl)-3-pyridyl]methyl]-N-methyl-1-[4-(2-methylpyrazol-3-yl)phthalazin-1-yl]piperidin-4-amine] was run?
A: The pIC50 was > 8.00.

Q: Cn1nccc1-c1nnc(N2CCC(CNCc3ccc(F)cc3C(F)(F)F)C2)c2ccccc12 (stereo not shown) [Example 140, 1-[4-fluoro-2-(trifluoromethyl)phenyl]-N-[[1-[4-(2-methylpyrazol-3-yl)phthalazin-1-yl]pyrrolidin-3-yl]methyl]methanamine] was tested. Which pIC50 did it give?
A: Its pIC50 is 6.70 to 8.00.

Q: With CN(Cc1ccnnc1)C1CCN(c2nnc(-c3ccnn3C)c3ccccc23)CC1 [Example 91, N-methyl-1-[4-(2-methylpyrazol-3-yl)phthalazin-1-yl]-N-(pyridazin-4-ylmethyl)piperidin-4-amine] as the molecule, how does the pIC50 read?
A: The pIC50 was < 6.70.

Q: With CN(Cc1cccc(C#N)c1)C1CCN(c2nnc(-c3ccnn3C)c3c2CCC3)CC1 [Example 131, 3-[[methyl-[1-[1-(2-methylpyrazol-3-yl)-6,7-dihydro-5H-cyclopenta[d]pyridazin-4-yl]-4-piperidyl]amino]methyl]benzonitrile] as the molecule, how does the pIC50 read?
A: The pIC50 was 6.70 to 8.00.

Q: With CN(Cc1ccc(F)cc1C(F)(F)F)C1CCN(c2nnc(-c3ccnn3C)c3cccnc23)CC1 [Example 135, N-[[4-fluoro-2-(trifluoromethyl)phenyl]methyl]-N-methyl-1-[5-(2-methylpyrazol-3-yl)pyrido[2,3-d]pyridazin-8-yl]piperidin-4-amine] as the molecule, how does the pIC50 read?
A: The pIC50 was 6.70 to 8.00.

Q: With Cn1nccc1-c1nnc(N2CCC(N(Cc3ccc(F)cc3C(F)(F)F)C3CC3)CC2)c2ccccc12 [Example 94, N-cyclopropyl-N-[[4-fluoro-2-(trifluoromethyl)phenyl]methyl]-1-[4-(2-methylpyrazol-3-yl)phthalazin-1-yl]piperidin-4-amine] as the molecule, how does the pIC50 read?
A: Its pIC50 is < 6.70.

Q: With O=C(Nc1ccc(F)cc1C(F)(F)F)NC1CCN(c2nnc(-c3ccncc3)c3ccncc23)CC1 [Example 99, 1-[4-fluoro-2-(trifluoromethyl)phenyl]-3-[1-[1-(4-pyridyl)pyrido[3,4-d]pyridazin-4-yl]-4-piperidyl]urea] as the molecule, how does the pIC50 read?
A: The pIC50 was > 8.00.

Q: With Cc1c(-c2ccnn2C)nnc(N2CCC(N(C)C(=O)Nc3ccc(F)cc3F)CC2)c1C [Example 127, 3-(2,4-difluorophenyl)-1-[1-[4,5-dimethyl-6-(2-methylpyrazol-3-yl)pyridazin-3-yl]-4-piperidyl]-1-methyl-urea] as the molecule, how does the pIC50 read?
A: Its pIC50 is < 6.70.

Q: CN(Cc1ccc(F)cc1C(F)(F)F)C1CCN(c2nnc(-c3cnccn3)c3ccccc23)CC1 [Example 153, N-[[4-fluoro-2-(trifluoromethyl)phenyl]methyl]-N-methyl-1-(4-pyrazin-2-ylphthalazin-1-yl)piperidin-4-amine] was tested. Which pIC50 did it give?
A: The pIC50 was < 6.70.

Q: With Cc1c(-c2ccnn2C)nnc(N2CCC(N(C)Cc3ncccc3C(F)(F)F)CC2)c1C [Example 85, 1-[4,5-dimethyl-6-(2-methylpyrazol-3-yl)pyridazin-3-yl]-N-methyl-N-[[3-(trifluoromethyl)-2-pyridyl]methyl]piperidin-4-amine] as the molecule, how does the pIC50 read?
A: Its pIC50 is 6.70 to 8.00.

Q: How did the pIC50 turn out when Cn1nccc1-c1nnc(N2CCC(NCc3cccc(F)c3F)CC2)c2ccccc12 [Example 163, N-[(2,3-difluorophenyl)methyl]-1-[4-(2-methylpyrazol-3-yl)phthalazin-1-yl]piperidin-4-amine] was run?
A: The pIC50 was 6.70 to 8.00.

Q: How did the pIC50 turn out when Cc1c(-c2ccnn2C)nnc(N2CCC(N(C)Cc3ccncn3)CC2)c1C [Example 171, 1-[4,5-dimethyl-6-(2-methylpyrazol-3-yl)pyridazin-3-yl]-N-methyl-N-(pyrimidin-4-ylmethyl)piperidin-4-amine] was run?
A: Its pIC50 is < 6.00.

Q: With Cn1nccc1-c1nnc(N2CCC(NCc3ncccc3C(F)(F)F)CC2)c2ccccc12 [Example 150, 1-[4-(2-methylpyrazol-3-yl)phthalazin-1-yl]-N-[[3-(trifluoromethyl)-2-pyridyl]methyl]piperidin-4-amine] as the molecule, how does the pIC50 read?
A: Its pIC50 is 6.70 to 8.00.

Q: How did the pIC50 turn out when Cn1nccc1-c1nnc(N2CCC(NC(=O)Nc3ccc(F)cc3C(F)(F)F)CC2)c2cnccc12 [Example 105, 1-[4-fluoro-2-(trifluoromethyl)phenyl]-3-[1-[1-(2-methylpyrazol-3-yl)pyrido[3,4-d]pyridazin-4-yl]-4-piperidyl]urea] was run?
A: The pIC50 was > 8.00.

Q: With CN(Cc1ccc(F)cc1C(F)(F)F)CC1CCN(c2nnc(-c3ccnn3C)c3ccccc23)C1 (stereo not shown) [Example 139, 1-[4-fluoro-2-(trifluoromethyl)phenyl]-N-methyl-N-[[1-[4-(2-methylpyrazol-3-yl)phthalazin-1-yl]pyrrolidin-3-yl]methyl]methanamine] as the molecule, how does the pIC50 read?
A: The pIC50 was 6.70 to 8.00.

Q: With Cn1nccc1-c1nnc(N2CCC(Nc3ccc(F)cc3C(F)(F)F)CC2)c2c1CCC2 [Example 142, N-[4-fluoro-2-(trifluoromethyl)phenyl]-1-[1-(2-methylpyrazol-3-yl)-6,7-dihydro-5H-cyclopenta[d]pyridazin-4-yl]piperidin-4-amine] as the molecule, how does the pIC50 read?
A: The pIC50 was 6.70 to 8.00.
